One assay concerns the target Substance-P receptor (Rattus norvegicus, UniProt P14600). Nature of the assay: Ability to inhibit the binding of [125I]physalaemin to the SP receptors in rat telencephalon slices.
For a further assay, the target named is Adenosine receptor (Rattus norvegicus, UniProt P29276+P25099+P30543+P28647). Description: Ability to inhibit the binding of [3H]N6-phenylisopropyl adenosine to adenosine receptor in rat cerebral cortex membranes. In kind it is cell membranes, Membrane.

Where a SMILES comes first, the peptide text is derived from it. The star is where a group is joined. X1 = CCCN1C(=O)C2NC(c3ccc(OCC(=O)NCCNC(=O)C(N)CC(=O)*)cc3)=NC2N(CCC)C1=O; X2 = O=C(Cc1ccc(Nc2ncnc3c2ncn3[C@@H]2O[C@H](CO)[C@@H](O)[C@H]2O)cc1)*

By Ki is commonly meant the equilibrium dissociation constant of an inhibitor or competing ligand from its target. A low value points to higher affinity.

Chain of Substance-P receptor (P14600 whole entry): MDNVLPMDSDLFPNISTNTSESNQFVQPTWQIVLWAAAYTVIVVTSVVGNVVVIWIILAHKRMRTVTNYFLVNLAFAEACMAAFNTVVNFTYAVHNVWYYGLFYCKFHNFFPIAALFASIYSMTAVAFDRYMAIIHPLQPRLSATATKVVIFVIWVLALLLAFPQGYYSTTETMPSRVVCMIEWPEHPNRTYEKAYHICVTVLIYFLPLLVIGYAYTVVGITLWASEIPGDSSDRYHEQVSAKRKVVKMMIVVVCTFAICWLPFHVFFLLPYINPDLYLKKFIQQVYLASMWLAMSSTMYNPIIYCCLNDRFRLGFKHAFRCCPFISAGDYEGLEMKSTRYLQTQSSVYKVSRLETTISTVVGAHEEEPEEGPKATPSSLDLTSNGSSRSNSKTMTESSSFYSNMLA

At Substance-P receptor, H-QQFFGLM-NH2 registered an inhibitory constant (Ki) of 180 nM.
The compound `CSCC[C@@H](NC(=O)[C@H](CC(C)C)NC(=O)CNC(=O)[C@H](Cc1ccccc1)NC(=O)[C@@H](N)Cc1ccccc1)C(N)=O` registered an inhibitory constant (Ki) at Adenosine receptor of more than 30000 nM.
Consider H-QFFGLM-NH2, for which the Ki at Substance-P receptor turned out to be 450 nM.
For the compound `CSCC[C@H](NC(=O)[C@H](CC(C)C)NC(=O)CNC(=O)[C@H](Cc1ccccc1)NC(=O)[C@H](Cc1ccccc1)NC(=O)[C@H](CCC(N)=O)NC(=O)[C@H](CCC(N)=O)NC(=O)[C@@H]1CCCN1C(=O)[C@H](CCCCN)NC(=O)[C@@H]1CCCN1C(=O)[C@@H](N)CCCN=C(N)N)C(N)=O` [SUBSTANCE P], the inhibitory constant (Ki) at Adenosine receptor was more than 30000 nM.
For `CCCN1C(=O)C2NC(c3ccc(OCC(=O)NCCNC(=O)C(N)CC(=O)N[C@@H](Cc4ccccc4)C(=O)N[C@@H](Cc4ccccc4)C(=O)NCC(=O)N[C@@H](CC(C)C)C(=O)N[C@@H](CCSC)C(N)=O)cc3)=NC2N(CCC)C1=O` (stereo not given in full) (X1-FFGLM-NH2), the Ki on Adenosine receptor was 35 nM; on Substance-P receptor, 300 nM.
Consider `CCCN1C(=O)C2NC(c3ccc(OCC(=O)NCCNC(=O)CN)cc3)=NC2N(CCC)C1=O` (stereo not given), for which the results for the inhibitory constant (Ki) on Adenosine receptor and at Substance-P receptor were 2.1 nM and more than 10000 nM, respectively.
As for `CCCN1C(=O)C2NC(c3ccc(OCC(=O)NCCNC(=O)C(N)CC(=O)N[C@@H](Cc4ccccc4)C(=O)N[C@@H](Cc4ccccc4)C(=O)NCC(N)=O)cc3)=NC2N(CCC)C1=O` (stereo not given in full), the inhibition constant (Ki) was 30 nM at Adenosine receptor and more than 10000 nM at Substance-P receptor.
Compound `CSCC[C@H](NC(=O)[C@H](CC(C)C)NC(=O)CNC(=O)[C@H](Cc1ccccc1)NC(=O)[C@H](Cc1ccccc1)NC(C)=O)C(N)=O` displayed an inhibition constant (Ki) on Substance-P receptor of more than 10000 nM.
As for `CCCN1C(=O)C2NC(c3ccc(OCC(=O)NCCNC(=O)C(N)CC(N)=O)cc3)=NC2N(CCC)C1=O` (stereo not given), on Adenosine receptor, the Ki is recorded as 4.3 nM. That is a single-digit nanomolar value.
In the case of `O=C(O)Cc1ccc(Nc2ncnc3c2ncn3C2O[C@H](CO)[C@@H](O)[C@H]2O)cc1` (stereo not given in full), the Ki at Adenosine receptor was found to be 210 nM. This Ki is about 49-fold higher than that of the compound before.
In turn, `CSCC[C@H](NC(=O)[C@H](CC(C)C)NC(=O)CNC(=O)[C@H](Cc1ccccc1)NC(=O)[C@@H](N)Cc1ccccc1)C(N)=O` returned a Ki at Substance-P receptor of more than 10000 nM.
Consider `CNC(=O)Cc1ccc(Nc2ncnc3c2ncn3C2O[C@H](CO)[C@@H](O)[C@H]2O)cc1` (stereo not given in full), for which, on Substance-P receptor, the inhibitory constant (Ki) was more than 10000 nM.
As for `CSCC[C@@H](NC(=O)[C@H](CC(C)C)NC(=O)CNC(=O)[C@H](Cc1ccccc1)NC(=O)[C@H](Cc1ccccc1)NC(C)=O)C(N)=O`, at Adenosine receptor, the Ki is more than 30000 nM.
Turning to `CCCN1C(=O)C2NC(c3ccc(OCC(=O)NCCN)cc3)=NC2N(CCC)C1=O` (stereo not given), the inhibitory constant (Ki) on Adenosine receptor is 1.2 nM; at Substance-P receptor it was more than 10000 nM.
Take `CSCC[C@H](NC(=O)[C@H](CC(C)C)NC(=O)CNC(=O)[C@H](Cc1ccccc1)NC(=O)[C@H](Cc1ccccc1)NC(=O)Cc1ccc(Nc2ncnc3c2ncn3[C@@H]2O[C@H](CO)[C@@H](O)[C@H]2O)cc1)C(N)=O` (X2-FFGLM-NH2): the Ki worked out at 16 nM on Adenosine receptor and 2000 nM at Substance-P receptor.

These data come from ChEMBL document CHEMBL1123824 (J Med Chem, 1987).
